Laboratory results published in the NIST ThermoML archive (doi:10.1021/je049652j).
Numbers after ± are expanded uncertainties.

Test: molar heat capacity at constant pressure
Details: 101.33 kPa, Liquid

CCCCBr [1-bromobutane]
Details | molar heat capacity at constant pressure [J/K/mol]
284.15 K | 159.45 ± 0.8
286.65 K | 159.98 ± 0.8
289.15 K | 160.53 ± 0.8
291.65 K | 161.01 ± 0.81
294.15 K | 161.52 ± 0.81
296.65 K | 162.08 ± 0.81
299.15 K | 162.6 ± 0.81
301.65 K | 163.08 ± 0.82
304.15 K | 163.72 ± 0.82
306.65 K | 164.22 ± 0.82
309.15 K | 164.78 ± 0.82
311.65 K | 165.34 ± 0.83
314.15 K | 165.94 ± 0.83
316.65 K | 166.49 ± 0.83
319.15 K | 167.09 ± 0.84
321.65 K | 167.67 ± 0.84
324.15 K | 168.29 ± 0.84
326.65 K | 168.83 ± 0.84
329.15 K | 169.45 ± 0.85
331.65 K | 170.09 ± 0.85
334.15 K | 170.63 ± 0.85
336.65 K | 171 ± 0.86
339.15 K | 171.94 ± 0.86
341.65 K | 172.57 ± 0.86
344.15 K | 173.26 ± 0.87
346.65 K | 173.89 ± 0.87
349.15 K | 174.51 ± 0.87
351.65 K | 175.19 ± 0.88
353.15 K | 175.47 ± 0.88

CCCCCCCCCCBr [1-bromodecane]
Details | molar heat capacity at constant pressure [J/K/mol]
284.15 K | 332.6 ± 1.7
286.65 K | 333.65 ± 1.7
289.15 K | 335 ± 1.7
291.65 K | 336.08 ± 1.7
294.15 K | 336.9 ± 1.7
296.65 K | 338.2 ± 1.7
299.15 K | 339.29 ± 1.7
301.65 K | 340.37 ± 1.7
304.15 K | 341.48 ± 1.7
306.65 K | 342.74 ± 1.7
309.15 K | 343.89 ± 1.7
311.65 K | 345.13 ± 1.7
314.15 K | 346.34 ± 1.7
316.65 K | 347.51 ± 1.7
319.15 K | 348.84 ± 1.7
321.65 K | 350.1 ± 1.8
324.15 K | 351.41 ± 1.8
326.65 K | 352.71 ± 1.8
329.15 K | 354.02 ± 1.8
331.65 K | 355.32 ± 1.8
334.15 K | 356.14 ± 1.8
336.65 K | 357.34 ± 1.8
339.15 K | 359.3 ± 1.8
341.65 K | 360.7 ± 1.8
344.15 K | 362.13 ± 1.8
346.65 K | 363.37 ± 1.8
349.15 K | 364.86 ± 1.8
351.65 K | 366.38 ± 1.8
353.15 K | 367.07 ± 1.8

CCCCCCCBr [1-bromoheptane]
Details | molar heat capacity at constant pressure [J/K/mol]
284.15 K | 244.73 ± 1.2
286.65 K | 245.56 ± 1.2
289.15 K | 246.44 ± 1.2
291.65 K | 247.28 ± 1.2
294.15 K | 248.12 ± 1.2
296.65 K | 248.93 ± 1.2
299.15 K | 249.7 ± 1.2
301.65 K | 250.38 ± 1.2
304.15 K | 251.56 ± 1.3
306.65 K | 252.33 ± 1.3
309.15 K | 253.19 ± 1.3
311.65 K | 254.14 ± 1.3
314.15 K | 255 ± 1.3
316.65 K | 255.97 ± 1.3
319.15 K | 256.84 ± 1.3
321.65 K | 257.85 ± 1.3
324.15 K | 258.76 ± 1.3
326.65 K | 259.71 ± 1.3
329.15 K | 260.68 ± 1.3
331.65 K | 261.61 ± 1.3
334.15 K | 262.5 ± 1.3
336.65 K | 262.97 ± 1.3
339.15 K | 264.64 ± 1.3
341.65 K | 265.49 ± 1.3
344.15 K | 266.52 ± 1.3
346.65 K | 267.46 ± 1.3
349.15 K | 268.47 ± 1.3
351.65 K | 269.51 ± 1.4
353.15 K | 270.03 ± 1.4

CCCCCCBr [1-bromohexane]
Details | molar heat capacity at constant pressure [J/K/mol]
284.15 K | 215.54 ± 1.1
286.65 K | 216.29 ± 1.1
289.15 K | 217.08 ± 1.1
291.65 K | 217.78 ± 1.1
294.15 K | 218.54 ± 1.1
296.65 K | 219.26 ± 1.1
299.15 K | 219.99 ± 1.1
301.65 K | 220.68 ± 1.1
304.15 K | 221.38 ± 1.1
306.65 K | 222.22 ± 1.1
309.15 K | 222.98 ± 1.1
311.65 K | 223.79 ± 1.1
314.15 K | 224.63 ± 1.1
316.65 K | 225.37 ± 1.1
319.15 K | 226.2 ± 1.1
321.65 K | 227.01 ± 1.1
324.15 K | 227.86 ± 1.1
326.65 K | 228.67 ± 1.1
329.15 K | 229.55 ± 1.1
331.65 K | 230.39 ± 1.1
334.15 K | 231.21 ± 1.2
336.65 K | 231.59 ± 1.2
339.15 K | 233.25 ± 1.2
341.65 K | 233.77 ± 1.2
344.15 K | 234.73 ± 1.2
346.65 K | 235.64 ± 1.2
349.15 K | 236.55 ± 1.2
351.65 K | 237.39 ± 1.2
353.15 K | 237.85 ± 1.2

CCCCCCCCCBr [1-bromononane]
Details | molar heat capacity at constant pressure [J/K/mol]
284.15 K | 302.55 ± 1.5
286.65 K | 303.54 ± 1.5
289.15 K | 304.62 ± 1.5
291.65 K | 305.57 ± 1.5
294.15 K | 306.69 ± 1.5
296.65 K | 307.68 ± 1.5
299.15 K | 308.8 ± 1.5
301.65 K | 309.82 ± 1.6
304.15 K | 310.95 ± 1.6
306.65 K | 311.91 ± 1.6
309.15 K | 313.01 ± 1.6
311.65 K | 314.1 ± 1.6
314.15 K | 315.18 ± 1.6
316.65 K | 316.32 ± 1.6
319.15 K | 317.44 ± 1.6
321.65 K | 318.7 ± 1.6
324.15 K | 319.8 ± 1.6
326.65 K | 320.96 ± 1.6
329.15 K | 322.16 ± 1.6
331.65 K | 323.32 ± 1.6
334.15 K | 324.63 ± 1.6
336.65 K | 325 ± 1.6
339.15 K | 326.99 ± 1.6
341.65 K | 328.13 ± 1.6
344.15 K | 329.39 ± 1.6
346.65 K | 330.49 ± 1.6
349.15 K | 331.79 ± 1.7
351.65 K | 333.04 ± 1.7
353.15 K | 333.74 ± 1.7

CCCCCBr [1-bromopentane]
Details | molar heat capacity at constant pressure [J/K/mol]
284.15 K | 187.88 ± 0.94
286.65 K | 188.46 ± 0.94
289.15 K | 189.17 ± 0.95
291.65 K | 189.85 ± 0.95
294.15 K | 190.33 ± 0.95
296.65 K | 190.94 ± 0.95
299.15 K | 191.57 ± 0.96
301.65 K | 192.17 ± 0.96
304.15 K | 193.01 ± 0.97
306.65 K | 193.53 ± 0.97
309.15 K | 194.17 ± 0.97
311.65 K | 194.86 ± 0.97
314.15 K | 195.6 ± 0.98
316.65 K | 196.21 ± 0.98
319.15 K | 196.98 ± 0.98
321.65 K | 197.61 ± 0.99
324.15 K | 198.35 ± 0.99
326.65 K | 199.09 ± 1
329.15 K | 199.8 ± 1
331.65 K | 200.47 ± 1
334.15 K | 201.48 ± 1
336.65 K | 201.57 ± 1
339.15 K | 202.76 ± 1
341.65 K | 203.58 ± 1
344.15 K | 204.33 ± 1
346.65 K | 205.07 ± 1
349.15 K | 205.89 ± 1
351.65 K | 206.69 ± 1
353.15 K | 207.05 ± 1

CCCBr [1-bromopropane]
Details | molar heat capacity at constant pressure [J/K/mol]
269.15 K | 129.02 ± 0.65
271.65 K | 129.44 ± 0.65
274.15 K | 129.78 ± 0.65
276.65 K | 130.1 ± 0.65
279.15 K | 130.48 ± 0.65
281.65 K | 130.86 ± 0.65
284.15 K | 131.2 ± 0.66
286.65 K | 131.64 ± 0.66
289.15 K | 132.01 ± 0.66
291.65 K | 132.46 ± 0.66
294.15 K | 132.78 ± 0.66
296.65 K | 133.2 ± 0.67
299.15 K | 133.64 ± 0.67
301.65 K | 134 ± 0.67
304.15 K | 134.55 ± 0.67
306.65 K | 134.93 ± 0.67
309.15 K | 135.35 ± 0.68
311.65 K | 135.8 ± 0.68
314.15 K | 136.23 ± 0.68
316.65 K | 136.68 ± 0.68
319.15 K | 137.16 ± 0.69
321.65 K | 137.6 ± 0.69
324.15 K | 138.11 ± 0.69
326.65 K | 138.55 ± 0.69

CCCCCl [1-chlorobutane]
Details | molar heat capacity at constant pressure [J/K/mol]
284.15 K | 156.22 ± 0.78
286.65 K | 156.75 ± 0.78
289.15 K | 157.28 ± 0.79
291.65 K | 157.7 ± 0.79
294.15 K | 158.27 ± 0.79
296.65 K | 158.86 ± 0.79
299.15 K | 159.48 ± 0.8
301.65 K | 160.05 ± 0.8
304.15 K | 160.5 ± 0.8
306.65 K | 161.06 ± 0.81
309.15 K | 161.59 ± 0.81
311.65 K | 162.24 ± 0.81
314.15 K | 162.92 ± 0.81
316.65 K | 163.42 ± 0.82
319.15 K | 164.11 ± 0.82
321.65 K | 164.82 ± 0.82
324.15 K | 165 ± 0.83
326.65 K | 165.97 ± 0.83
329.15 K | 166.72 ± 0.83
331.65 K | 167.29 ± 0.84
334.15 K | 167.78 ± 0.84
336.65 K | 168.53 ± 0.84
339.15 K | 169.12 ± 0.85
341.65 K | 170.01 ± 0.85
344.15 K | 170.43 ± 0.85
346.65 K | 170.49 ± 0.85
349.15 K | 171.5 ± 0.86
351.65 K | 173.02 ± 0.87
353.15 K | 173.09 ± 0.87
